The target of assay [1] is T1, recombinant integrin α4β7 (Homo sapiens, UniProt P13612+P26010, DEL724-798).
T1 construct: purchased R&D Systems 5397-A3-050
T1 sequence (P13612 34-970 limits assumed): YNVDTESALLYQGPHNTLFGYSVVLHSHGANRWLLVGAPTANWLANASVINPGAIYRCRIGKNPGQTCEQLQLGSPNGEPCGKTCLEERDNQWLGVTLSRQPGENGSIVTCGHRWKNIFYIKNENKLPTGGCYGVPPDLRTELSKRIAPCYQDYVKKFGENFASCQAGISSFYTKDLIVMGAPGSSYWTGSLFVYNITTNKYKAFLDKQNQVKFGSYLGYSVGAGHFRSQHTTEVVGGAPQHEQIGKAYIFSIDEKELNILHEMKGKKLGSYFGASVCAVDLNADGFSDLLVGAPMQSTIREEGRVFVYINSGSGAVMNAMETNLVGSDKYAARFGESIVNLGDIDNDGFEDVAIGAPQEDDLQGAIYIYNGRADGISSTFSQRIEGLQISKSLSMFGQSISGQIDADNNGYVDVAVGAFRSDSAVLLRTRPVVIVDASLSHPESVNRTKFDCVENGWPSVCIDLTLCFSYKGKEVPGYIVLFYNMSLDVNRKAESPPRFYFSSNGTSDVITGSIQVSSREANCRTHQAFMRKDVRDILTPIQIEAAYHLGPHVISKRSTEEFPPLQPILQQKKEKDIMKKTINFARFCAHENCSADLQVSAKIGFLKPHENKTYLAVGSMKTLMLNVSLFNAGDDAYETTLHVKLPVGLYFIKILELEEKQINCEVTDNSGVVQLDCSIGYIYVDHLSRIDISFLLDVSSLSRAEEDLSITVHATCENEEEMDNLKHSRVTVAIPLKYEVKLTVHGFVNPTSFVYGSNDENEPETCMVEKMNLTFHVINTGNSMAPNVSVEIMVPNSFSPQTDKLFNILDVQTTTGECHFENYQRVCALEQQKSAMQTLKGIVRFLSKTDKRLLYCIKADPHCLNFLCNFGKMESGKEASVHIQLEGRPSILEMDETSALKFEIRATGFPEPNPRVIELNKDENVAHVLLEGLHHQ
T1 sequence (P26010 20-723 limits assumed): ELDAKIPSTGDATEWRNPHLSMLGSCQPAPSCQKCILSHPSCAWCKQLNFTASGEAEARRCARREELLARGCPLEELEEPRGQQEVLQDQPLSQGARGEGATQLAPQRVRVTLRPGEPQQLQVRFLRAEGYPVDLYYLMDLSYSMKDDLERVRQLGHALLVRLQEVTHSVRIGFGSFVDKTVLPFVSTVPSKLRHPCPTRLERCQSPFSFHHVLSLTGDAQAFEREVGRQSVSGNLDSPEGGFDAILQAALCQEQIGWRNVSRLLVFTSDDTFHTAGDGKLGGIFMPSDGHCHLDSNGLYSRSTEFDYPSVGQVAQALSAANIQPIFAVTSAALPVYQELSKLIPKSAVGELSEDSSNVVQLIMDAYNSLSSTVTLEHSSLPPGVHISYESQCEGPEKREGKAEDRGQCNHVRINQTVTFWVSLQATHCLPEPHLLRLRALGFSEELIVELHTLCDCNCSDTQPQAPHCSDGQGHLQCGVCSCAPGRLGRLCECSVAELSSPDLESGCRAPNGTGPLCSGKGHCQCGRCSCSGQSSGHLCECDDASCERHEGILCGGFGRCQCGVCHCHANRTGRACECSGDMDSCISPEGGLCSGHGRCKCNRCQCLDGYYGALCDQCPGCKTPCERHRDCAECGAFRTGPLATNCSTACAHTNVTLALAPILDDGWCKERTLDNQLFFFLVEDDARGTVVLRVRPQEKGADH
In words: Integrin α4β7—MAdCAM-1 ELISA competition assay. The conditions noted are these: read-out: ELISA α4β7 Assay IC50. The class given is binding.
Protocol: Integrin α4β7—MAdCAM-1 ELISA Competition Assay
The plate was incubated at 40C overnight. […] The plate was then incubated for 1 hour at room temperature. The plate was washed three times with wash buffer (50 mM Tris, 100 mM NaCl, 1 mM MnCl2, 0.05% Tween). To each well, 50 μl of compound diluted in assay buffer was added by transfer from a compound serial dilution plate. […] The plate was incubated at room temperature with shaking (300 rpm) for 2 hours to reach binding equilibrium. […] The plate was incubated at room temperature for 1 hour under agitation.

In assay [2] the target is T2, recombinant integrin α4β1 (Homo sapiens, UniProt P05556+P13612).
T2 construct: purchased R&D Systems 5397-A3-050
T2 sequence (P05556 21-728 limits assumed, one chain of several): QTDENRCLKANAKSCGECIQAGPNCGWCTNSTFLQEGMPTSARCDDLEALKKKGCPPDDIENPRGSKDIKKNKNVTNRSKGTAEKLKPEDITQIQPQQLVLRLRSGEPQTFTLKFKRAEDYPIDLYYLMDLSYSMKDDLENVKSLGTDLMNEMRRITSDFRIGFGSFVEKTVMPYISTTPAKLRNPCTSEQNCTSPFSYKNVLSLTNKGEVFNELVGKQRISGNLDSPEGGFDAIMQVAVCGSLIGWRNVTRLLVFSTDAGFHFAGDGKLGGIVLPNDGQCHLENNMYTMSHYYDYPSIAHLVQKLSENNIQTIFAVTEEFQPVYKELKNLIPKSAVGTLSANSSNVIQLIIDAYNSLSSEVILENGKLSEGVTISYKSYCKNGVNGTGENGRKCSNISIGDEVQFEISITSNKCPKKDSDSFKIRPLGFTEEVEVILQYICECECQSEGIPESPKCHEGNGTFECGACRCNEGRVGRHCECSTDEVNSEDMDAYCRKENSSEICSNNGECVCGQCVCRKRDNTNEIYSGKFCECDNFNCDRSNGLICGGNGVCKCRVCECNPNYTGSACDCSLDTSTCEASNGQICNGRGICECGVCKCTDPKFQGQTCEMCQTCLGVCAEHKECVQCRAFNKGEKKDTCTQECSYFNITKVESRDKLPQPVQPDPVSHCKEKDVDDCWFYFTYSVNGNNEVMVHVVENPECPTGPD
In words: Integrin α4β1—VCAM-1 competition ELISA. The class given is binding. Particulars: for ELISA Assay Ratio β1/β7: ratio of ELISA IC50s, α4β1 over α4β7; for IC50: read-out: ELISA α4β1 Assay IC50. A digest of the protocol:
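Detection of bound ligand used HRP-conjugated anti-human IgG Fc, 1 h with agitation at room temperature. This followed a 2 h room-temperature, 300 rpm equilibration of compound in the coated wells. Washes were done in 50 mM Tris, 100 mM NaCl, 1 mM MnCl2, 0.05% Tween.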

The target of assay [3] is T3, integrin α4β1 (RAMOS human cells adhering to VCAM-1) (Homo sapiens, UniProt P05556+P13612).
T3 construct: Ramos cells, which express integrin α4β1; host or cells: RAMOS
T3 sequence (P13612 34-1032): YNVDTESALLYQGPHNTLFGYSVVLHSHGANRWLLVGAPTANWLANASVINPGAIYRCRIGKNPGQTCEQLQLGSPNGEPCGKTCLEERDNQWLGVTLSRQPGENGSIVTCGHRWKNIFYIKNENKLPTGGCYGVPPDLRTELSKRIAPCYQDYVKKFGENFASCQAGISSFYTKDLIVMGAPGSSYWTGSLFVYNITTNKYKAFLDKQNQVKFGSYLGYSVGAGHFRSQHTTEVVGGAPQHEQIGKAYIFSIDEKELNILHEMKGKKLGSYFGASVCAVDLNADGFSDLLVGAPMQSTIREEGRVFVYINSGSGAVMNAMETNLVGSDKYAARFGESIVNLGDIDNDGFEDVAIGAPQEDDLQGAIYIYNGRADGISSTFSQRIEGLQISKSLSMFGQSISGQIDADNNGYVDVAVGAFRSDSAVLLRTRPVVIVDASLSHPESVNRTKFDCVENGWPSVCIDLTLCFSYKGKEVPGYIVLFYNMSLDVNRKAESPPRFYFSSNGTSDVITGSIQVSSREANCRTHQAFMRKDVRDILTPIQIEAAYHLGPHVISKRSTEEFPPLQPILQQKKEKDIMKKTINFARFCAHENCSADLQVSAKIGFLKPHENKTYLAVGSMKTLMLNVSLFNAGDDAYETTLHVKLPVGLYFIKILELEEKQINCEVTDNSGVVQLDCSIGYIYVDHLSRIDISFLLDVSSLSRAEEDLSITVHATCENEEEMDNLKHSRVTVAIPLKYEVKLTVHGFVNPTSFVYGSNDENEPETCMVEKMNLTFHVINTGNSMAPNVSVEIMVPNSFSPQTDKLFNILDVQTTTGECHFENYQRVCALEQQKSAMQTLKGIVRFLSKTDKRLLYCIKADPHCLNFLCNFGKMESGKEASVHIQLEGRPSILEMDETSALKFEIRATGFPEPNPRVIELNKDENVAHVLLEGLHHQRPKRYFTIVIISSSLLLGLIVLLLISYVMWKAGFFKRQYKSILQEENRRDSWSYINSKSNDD
T3 sequence (P05556 21-798): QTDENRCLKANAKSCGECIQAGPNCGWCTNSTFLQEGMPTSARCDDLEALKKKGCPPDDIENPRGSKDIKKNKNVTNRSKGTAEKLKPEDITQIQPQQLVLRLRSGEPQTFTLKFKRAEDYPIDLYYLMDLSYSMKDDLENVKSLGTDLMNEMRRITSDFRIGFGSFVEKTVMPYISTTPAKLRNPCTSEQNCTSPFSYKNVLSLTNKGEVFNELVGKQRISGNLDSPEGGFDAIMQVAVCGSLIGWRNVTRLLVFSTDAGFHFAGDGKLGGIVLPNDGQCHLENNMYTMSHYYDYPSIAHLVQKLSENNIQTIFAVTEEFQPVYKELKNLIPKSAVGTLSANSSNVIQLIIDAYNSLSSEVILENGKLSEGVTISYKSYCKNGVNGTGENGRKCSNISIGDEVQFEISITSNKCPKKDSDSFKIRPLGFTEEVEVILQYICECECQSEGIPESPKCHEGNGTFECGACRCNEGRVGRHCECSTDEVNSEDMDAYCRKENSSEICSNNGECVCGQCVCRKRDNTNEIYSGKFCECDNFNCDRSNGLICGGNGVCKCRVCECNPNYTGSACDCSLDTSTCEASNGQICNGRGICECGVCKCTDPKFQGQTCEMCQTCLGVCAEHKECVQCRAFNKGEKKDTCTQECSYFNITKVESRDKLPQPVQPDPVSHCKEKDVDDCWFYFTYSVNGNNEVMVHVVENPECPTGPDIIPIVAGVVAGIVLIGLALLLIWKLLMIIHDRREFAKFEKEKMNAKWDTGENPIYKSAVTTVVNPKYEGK
In words: Integrin α4β1-VCAM cell adhesion assay (RAMOS cells). The conditions noted are these: for IC50: Ramos cells adhering to VCAM, read-out: Ramos Adhesion α4β1/VCAM IC50; for Ratio Ramos/RPMI: ratio of cell adhesion IC50s, Ramos α4β1/VCAM over RPMI8866 α4β7/MAdCAM. The class given is cell-based. A digest of the protocol: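 Human RAMOS cells loaded with calcein ([…] in PBS, 37° C, 30 min) allowed to adhere to VCAM-1-coated wells blocked with 1% milk. After PBS washes, adherent-cell fluorescence measured and cell-free well background subtracted to build dose-response.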

As for `CC(C)C[C@@H]1NC(=O)c2ccc(-c3ccc(N4CCN(C(=O)C5(C(=O)N6CCN(c7ccc(-c8ccc9cc8CNC(=O)[C@@H]8CCCN8[C@H](C(=O)NC(C)(C)C)[C@H](C)NC(=O)[C@H]([C@@H](C)O)NC(=O)[C@H](CC(=O)O)NC(=O)[C@H](CC(C)C)NC9=O)cc7)CC6)Cc6ccccc6C5)CC4)cc3)c(c2)CNC(=O)[C@@H]2CCCN2[C@H](C(=O)NC(C)(C)C)[C@H](C)NC(=O)[C@H]([C@@H](C)O)NC(=O)[C@H](CC(=O)O)NC1=O` [Compound 461], the IC50 in assay [1] is 18 nM. In assay [2], the “ELISA Assay Ratio β1/β7” value came to 0.4 and the IC50 stood at 7.9 nM. Moreover, in assay [3], the IC50 came out at 1220 nM and the “Ratio Ramos/RPMI” value turned out to be 31.
For `CC(C)C[C@@H]1NC(=O)c2ccc(-c3ccc(N4CCN(C(=O)[C@H]5CCC[C@H]5C(=O)N5CCN(c6ccc(-c7ccc8cc7CNC(=O)[C@@H]7CCCN7[C@H](C(=O)NC(C)(C)C)[C@H](C)NC(=O)[C@H]([C@@H](C)O)NC(=O)[C@H](CC(=O)O)NC(=O)[C@H](CC(C)C)NC8=O)cc6)CC5)CC4)cc3)c(c2)CNC(=O)[C@@H]2CCCN2[C@H](C(=O)NC(C)(C)C)[C@H](C)NC(=O)[C@H]([C@@H](C)O)NC(=O)[C@H](CC(=O)O)NC1=O` [Compound 458], the IC50 in assay [1] was found to be 6.4 nM; in assay [2], 1.5 nM; in assay [3], 990 nM. Besides, in assay [2], the “ELISA Assay Ratio β1/β7” value stood at 0.2. The “Ratio Ramos/RPMI” value in assay [3] is listed as 23.
Turning to `CC(C)C[C@@H]1NC(=O)c2ccc(-c3ccc(N4CCN(C(=O)CCOCCOCCNC(=O)CCCCCC(=O)NCCOCCOCCC(=O)N5CCN(c6ccc(-c7ccc8cc7CNC(=O)[C@@H]7CCCN7[C@H](C(=O)NC(C)(C)C)[C@H](C)NC(=O)[C@H]([C@@H](C)O)NC(=O)[C@H](CC(=O)O)NC(=O)[C@H](CC(C)C)NC8=O)cc6)CC5)CC4)cc3)c(c2)CNC(=O)[C@@H]2CCCN2[C@H](C(=O)NC(C)(C)C)[C@H](C)NC(=O)[C@H]([C@@H](C)O)NC(=O)[C@H](CC(=O)O)NC1=O` [Compound 505], the IC50 stood at 19 nM in assay [1], 6.6 nM in assay [2] and 1780 nM in assay [3]. Besides, the “ELISA Assay Ratio β1/β7” value in assay [2] is 0.3. Besides, in assay [3], the “Ratio Ramos/RPMI” value was 30.
For `CC(C)C[C@@H]1NC(=O)c2ccc(-c3ccc(N4CCN(c5ncc([N+](=O)[O-])c(N6CCN(c7ccc(-c8ccc9cc8CNC(=O)[C@@H]8CCCN8[C@H](C(=O)NC(C)(C)C)[C@H](C)NC(=O)[C@H]([C@@H](C)O)NC(=O)[C@H](CC(=O)O)NC(=O)[C@H](CC(C)C)NC9=O)cc7)CC6)n5)CC4)cc3)c(c2)CNC(=O)[C@@H]2CCCN2[C@H](C(=O)NC(C)(C)C)[C@H](C)NC(=O)[C@H]([C@@H](C)O)NC(=O)[C@H](CC(=O)O)NC1=O` [Compound 468], the IC50 in assay [1] was 32 nM. For the same compound, in assay [2], the “ELISA Assay Ratio β1/β7” value was 0.3 and the IC50 came out at 10 nM. In assay [3], the IC50 was determined as 677 nM and the “Ratio Ramos/RPMI” value is 51.
Taken in the same sequence, the figures for `CC(C)C[C@@H]1NC(=O)c2ccc(-c3ccc(N4CCN(Cc5ccc(CN6CCN(c7ccc(-c8ccc9cc8CNC(=O)[C@@H]8CCCN8[C@H](C(=O)NC(C)(C)C)[C@H](C)NC(=O)[C@H]([C@@H](C)O)NC(=O)[C@H](CC(=O)O)NC(=O)[C@H](CC(C)C)NC9=O)cc7)CC6)cc5)CC4)cc3)c(c2)CNC(=O)[C@@H]2CCCN2[C@H](C(=O)NC(C)(C)C)[C@H](C)NC(=O)[C@H]([C@@H](C)O)NC(=O)[C@H](CC(=O)O)NC1=O` [Compound 500] were 12 nM, 0.8, 9.9 nM, 1000 nM and 31.

Values taken from patent US11713338B2, “Cyclic peptides multimers targeting α-4-β-7 integrin” (priority 2016, dated 2023).
